In the NIST ThermoML archive (doi:10.1021/acs.jced.8b00132):
“And” between values parts separate entries of the source, which are not always exact repeats. Equal values may be shown once.

O=C(C(F)(F)C(F)(F)F)C(F)(C(F)(F)F)C(F)(F)F [dodecafluoro-2-methylpentan-3-one]
Conditions | thermal conductivity
402.37 K, 306 kPa, Gas, hot wire | 0.0201 W/m/K
402.38 K, 27 kPa, Gas, hot wire | 0.01858 W/m/K
402.38 K, 306 kPa, Gas, hot wire | 0.02016 W/m/K
402.44 K, 159 kPa, Gas, hot wire | 0.01917 W/m/K and 0.01915 W/m/K
402.45 K, 445 kPa, Gas, hot wire | 0.02064 W/m/K
402.47 K, 444 kPa, Gas, hot wire | 0.02039 W/m/K
402.49 K, 306 kPa, Gas, hot wire | 0.02022 W/m/K and 0.02027 W/m/K
402.5 K, 27 kPa, Gas, hot wire | 0.01866 W/m/K and 0.01864 W/m/K
402.57 K, 160 kPa, Gas, hot wire | 0.01916 W/m/K
402.57 K, 161 kPa, Gas, hot wire | 0.0192 W/m/K
402.57 K, 444 kPa, Gas, hot wire | 0.02075 W/m/K
402.59 K, 443 kPa, Gas, hot wire | 0.02053 W/m/K
402.62 K, 305 kPa, Gas, hot wire | 0.02031 W/m/K and 0.02029 W/m/K
402.63 K, 27 kPa, Gas, hot wire | 0.01867 W/m/K
402.64 K, 27 kPa, Gas, hot wire | 0.01862 W/m/K
402.68 K, 835 kPa, Gas, transient hot wire | 0.02013 W/m/K
402.69 K, 441 kPa, Gas, hot wire | 0.02089 W/m/K
402.69 K, 442 kPa, Gas, hot wire | 0.02089 W/m/K
402.69 K, 835 kPa, Gas, transient hot wire | 0.02007 W/m/K
402.71 K, 162 kPa, Gas, hot wire | 0.01917 W/m/K
402.71 K, 163 kPa, Gas, hot wire | 0.01926 W/m/K
402.74 K, 305 kPa, Gas, hot wire | 0.02049 W/m/K
402.74 K, 747 kPa, Gas, transient hot wire | 0.01986 W/m/K
402.74 K, 748 kPa, Gas, transient hot wire | 0.01986 W/m/K
402.75 K, 305 kPa, Gas, hot wire | 0.02035 W/m/K
402.78 K, 27 kPa, Gas, hot wire | 0.01867 W/m/K and 0.01858 W/m/K
402.81 K, 608 kPa, Gas, transient hot wire | 0.01959 W/m/K
402.81 K, 609 kPa, Gas, transient hot wire | 0.01955 W/m/K
402.85 K, 164 kPa, Gas, hot wire | 0.01925 W/m/K and 0.01927 W/m/K
402.87 K, 447 kPa, Gas, transient hot wire | 0.01955 W/m/K
402.87 K, 448 kPa, Gas, transient hot wire | 0.01962 W/m/K
402.87 K, 836 kPa, Gas, transient hot wire | 0.02025 W/m/K
402.88 K, 836 kPa, Gas, transient hot wire | 0.0203 W/m/K
402.91 K, 746 kPa, Gas, transient hot wire | 0.01994 W/m/K
402.92 K, 307 kPa, Gas, transient hot wire | 0.01967 W/m/K
402.92 K, 746 kPa, Gas, transient hot wire | 0.01998 W/m/K
402.93 K, 27 kPa, Gas, hot wire | 0.01857 W/m/K and 0.01866 W/m/K
403 K, 607 kPa, Gas, transient hot wire | 0.01962 W/m/K and 0.01975 W/m/K
403.05 K, 836 kPa, Gas, transient hot wire | 0.02051 W/m/K
403.06 K, 836 kPa, Gas, transient hot wire | 0.02049 W/m/K
403.07 K, 447 kPa, Gas, transient hot wire | 0.01962 W/m/K
403.08 K, 446 kPa, Gas, transient hot wire | 0.01959 W/m/K
403.1 K, 744 kPa, Gas, transient hot wire | 0.02004 W/m/K
403.1 K, 745 kPa, Gas, transient hot wire | 0.02014 W/m/K
403.12 K, 306 kPa, Gas, transient hot wire | 0.01974 W/m/K
403.12 K, 307 kPa, Gas, transient hot wire | 0.01974 W/m/K
403.2 K, 605 kPa, Gas, transient hot wire | 0.01971 W/m/K
403.21 K, 606 kPa, Gas, transient hot wire | 0.01981 W/m/K
403.25 K, 836 kPa, Gas, transient hot wire | 0.02071 W/m/K
403.25 K, 837 kPa, Gas, transient hot wire | 0.02072 W/m/K
403.28 K, 445 kPa, Gas, transient hot wire | 0.01961 W/m/K
403.3 K, 445 kPa, Gas, transient hot wire | 0.01958 W/m/K
403.33 K, 744 kPa, Gas, transient hot wire | 0.02022 W/m/K
403.34 K, 306 kPa, Gas, transient hot wire | 0.01976 W/m/K
403.34 K, 743 kPa, Gas, transient hot wire | 0.02024 W/m/K
403.35 K, 306 kPa, Gas, transient hot wire | 0.01972 W/m/K
403.41 K, 605 kPa, Gas, transient hot wire | 0.01984 W/m/K
403.42 K, 604 kPa, Gas, transient hot wire | 0.01984 W/m/K
403.51 K, 444 kPa, Gas, transient hot wire | 0.01967 W/m/K
403.53 K, 742 kPa, Gas, transient hot wire | 0.02037 W/m/K and 0.02041 W/m/K
403.54 K, 443 kPa, Gas, transient hot wire | 0.01965 W/m/K
403.57 K, 305 kPa, Gas, transient hot wire | 0.01974 W/m/K and 0.01978 W/m/K
403.63 K, 603 kPa, Gas, transient hot wire | 0.01991 W/m/K
403.64 K, 602 kPa, Gas, transient hot wire | 0.01991 W/m/K
403.75 K, 442 kPa, Gas, transient hot wire | 0.01972 W/m/K
403.76 K, 442 kPa, Gas, transient hot wire | 0.01971 W/m/K
403.81 K, 305 kPa, Gas, transient hot wire | 0.01987 W/m/K and 0.01988 W/m/K
416.35 K, 1171 kPa, Liquid, transient hot wire | 0.03902 W/m/K and 0.03885 W/m/K
416.51 K, 1171 kPa, Liquid, transient hot wire | 0.03892 W/m/K and 0.03904 W/m/K
416.67 K, 1170 kPa, Liquid, transient hot wire | 0.03901 W/m/K
416.68 K, 1170 kPa, Liquid, transient hot wire | 0.0389 W/m/K
416.69 K, 596 kPa, Gas, hot wire | 0.0223 W/m/K
416.7 K, 595 kPa, Gas, hot wire | 0.02228 W/m/K
416.78 K, 2205 kPa, Liquid, transient hot wire | 0.04062 W/m/K
416.79 K, 2206 kPa, Liquid, transient hot wire | 0.04049 W/m/K
416.8 K, 24840 kPa, Liquid, transient hot wire | 0.05568 W/m/K
416.81 K, 24844 kPa, Liquid, transient hot wire | 0.05562 W/m/K
416.81 K, 50957 kPa, Liquid, transient hot wire | 0.06585 W/m/K
416.82 K, 50950 kPa, Liquid, transient hot wire | 0.06577 W/m/K
416.86 K, 1170 kPa, Liquid, transient hot wire | 0.03904 W/m/K
416.87 K, 1131 kPa, Gas, transient hot wire | 0.02258 W/m/K
416.87 K, 1170 kPa, Liquid, transient hot wire | 0.03905 W/m/K
416.88 K, 16295 kPa, Liquid, transient hot wire | 0.0514 W/m/K
416.89 K, 590 kPa, Gas, hot wire | 0.02234 W/m/K
